Laboratory results as given in PubChem BioAssay (NCI).
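1) Cells in 96-well plates. 2) Compound, 48 h, 5 concentrations. 3) Linear interpolation between surrounding doses. 4) Unreached endpoint = highest concentration. TGI marks complete inhibition of growth.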

Tests used:
Test in all cases: inhibition of tumour cell growth, NCI panel, 48 h
HL-60(TB) leukemia = test system: HL-60(TB) leukemia
NCI-H522 lung = test system: NCI-H522 lung
A549 NSCLC = test system: A549 NSCLC
DMS 273 small cell lung = test system: DMS 273 small cell lung
OVCAR-4 ovarian = test system: OVCAR-4 ovarian
SF-268 CNS = test system: SF-268 CNS
SR leukemia = test system: SR leukemia
KM20L2 colon = test system: KM20L2 colon
SK-MEL-28 melanoma = test system: SK-MEL-28 melanoma
T-47D breast = test system: T-47D breast
BT-549 breast = test system: BT-549 breast
SNB-78 CNS = test system: SNB-78 CNS

## Cc1c(Cl)c2ccccc2n1S(=O)(=O)c1ccccc1
HL-60(TB) leukemia
  TGI: 78.8 µM
NCI-H522 lung
  TGI: 67.1 µM
A549 NSCLC
  TGI: > 100 µM
DMS 273 small cell lung
  TGI: > 100 µM
OVCAR-4 ovarian
  TGI: > 100 µM
SF-268 CNS
  TGI: > 100 µM
SR leukemia
  TGI: > 100 µM
KM20L2 colon
  TGI: > 100 µM
SK-MEL-28 melanoma
  TGI: > 100 µM

## Oc1ccc(-c2nc(-c3cccnc3)c(-c3ccc(Cl)cc3)[nH]2)cc1O
HL-60(TB) leukemia
  TGI: > 100 µM
NCI-H522 lung
  TGI: 4.68 µM
A549 NSCLC
  TGI: 54.1 µM
OVCAR-4 ovarian
  TGI: 51.6 µM
SF-268 CNS
  TGI: 39.7 µM
T-47D breast
  TGI: 37.9 µM
SR leukemia
  TGI: > 100 µM
BT-549 breast
  TGI: 21.6 µM
SK-MEL-28 melanoma
  TGI: 36.2 µM

## Nn1c(COc2cccc(OCc3n[nH]c(=S)n3N)c2)n[nH]c1=S
HL-60(TB) leukemia
  TGI: > 100 µM
NCI-H522 lung
  TGI: > 100 µM
A549 NSCLC
  TGI: > 100 µM
OVCAR-4 ovarian
  TGI: > 100 µM
SF-268 CNS
  TGI: > 100 µM
T-47D breast
  TGI: > 100 µM
SR leukemia
  TGI: 34.6 µM
BT-549 breast
  TGI: > 100 µM
SK-MEL-28 melanoma
  TGI: > 100 µM

## COC(=O)NCCc1[nH]nc2c1C(=O)C=C(N1CCOCC1)C2=O
HL-60(TB) leukemia
  TGI: > 100 µM
NCI-H522 lung
  TGI: > 100 µM
A549 NSCLC
  TGI: > 100 µM
OVCAR-4 ovarian
  TGI: > 100 µM
SF-268 CNS
  TGI: > 100 µM
T-47D breast
  TGI: > 100 µM
SR leukemia
  TGI: > 100 µM
BT-549 breast
  TGI: > 100 µM
SK-MEL-28 melanoma
  TGI: > 100 µM

## O=C(c1ccc(Cl)cc1)c1ccc(OCCCOc2ccc(C(=O)c3ccc(Cl)cc3)cc2)cc1
HL-60(TB) leukemia
  TGI: > 100 µM
NCI-H522 lung
  TGI: > 100 µM
A549 NSCLC
  TGI: > 100 µM
DMS 273 small cell lung
  TGI: > 100 µM
OVCAR-4 ovarian
  TGI: > 100 µM
SF-268 CNS
  TGI: > 100 µM
SR leukemia
  TGI: > 100 µM
KM20L2 colon
  TGI: > 100 µM
SK-MEL-28 melanoma
  TGI: > 100 µM

## CCSc1sc(=Nc2ccc(N=c3sc(C)c(SC)s3)cc2)sc1-c1ccc(C)cc1
HL-60(TB) leukemia
  TGI: > 100 µM
NCI-H522 lung
  TGI: > 100 µM
A549 NSCLC
  TGI: > 100 µM
OVCAR-4 ovarian
  TGI: > 100 µM
SF-268 CNS
  TGI: > 100 µM
T-47D breast
  TGI: > 100 µM
SR leukemia
  TGI: > 100 µM
BT-549 breast
  TGI: > 100 µM
SK-MEL-28 melanoma
  TGI: > 100 µM

## CCc1cc(Cc2cc(Cl)c(NC(=O)C(=O)C3NC(=O)NC3=O)c(CC)c2)cc(Cl)c1NC(=O)C(=O)C1NC(=O)NC1=O (stereo not drawn)
HL-60(TB) leukemia
  TGI: > 100 µM
SNB-78 CNS
  TGI: > 100 µM
A549 NSCLC
  TGI: > 100 µM
DMS 273 small cell lung
  TGI: 41.3 µM
OVCAR-4 ovarian
  TGI: > 100 µM
SF-268 CNS
  TGI: > 100 µM
SR leukemia
  TGI: > 100 µM
KM20L2 colon
  TGI: > 100 µM
SK-MEL-28 melanoma
  TGI: > 100 µM

## N#CC1=C(N)n2c(s/c(=C\c3ccc(Cl)cc3)c2=O)=C(c2nc3ccccc3[nH]2)C1c1ccc(Cl)cc1 (stereo not drawn)
HL-60(TB) leukemia
  TGI: 6.45 µM
NCI-H522 lung
  TGI: 3.68 µM
A549 NSCLC
  TGI: 10.9 µM
DMS 273 small cell lung
  TGI: 6.23 µM
OVCAR-4 ovarian
  TGI: 5.22 µM
SF-268 CNS
  TGI: 7.11 µM
SR leukemia
  TGI: 5.85 µM
KM20L2 colon
  TGI: 6.06 µM
SK-MEL-28 melanoma
  TGI: 3.03 µM

## CCC12CCCN(Cc3ccccc3)C1c1c([nH]c3ccccc13)C(C(=O)OC)C2 (stereo not drawn)
HL-60(TB) leukemia
  TGI: > 10 µM
NCI-H522 lung
  TGI: > 10 µM
A549 NSCLC
  TGI: > 10 µM
OVCAR-4 ovarian
  TGI: > 10 µM
SF-268 CNS
  TGI: > 10 µM
T-47D breast
  TGI: > 10 µM
SR leukemia
  TGI: > 10 µM
BT-549 breast
  TGI: > 10 µM
SK-MEL-28 melanoma
  TGI: > 10 µM

## COC(=O)c1c(O)ccc2c1c1c(n2Cc2ccccc2Cl)C(=O)c2ccccc2C1=O
HL-60(TB) leukemia
  TGI: 49.6 µM
NCI-H522 lung
  TGI: 25.5 µM
A549 NSCLC
  TGI: 26.7 µM
OVCAR-4 ovarian
  TGI: 12.6 µM
SF-268 CNS
  TGI: 29.4 µM
T-47D breast
  TGI: 27.4 µM
SR leukemia
  TGI: 47.8 µM
BT-549 breast
  TGI: 29.2 µM
SK-MEL-28 melanoma
  TGI: 29.4 µM

## Cc1c(Cl)nc(Nc2nc3ccccc3[nH]2)nc1Cl
HL-60(TB) leukemia
  TGI: > 100 µM
NCI-H522 lung
  TGI: > 100 µM
A549 NSCLC
  TGI: > 100 µM
OVCAR-4 ovarian
  TGI: 76.5 µM
SF-268 CNS
  TGI: > 100 µM
T-47D breast
  TGI: > 100 µM
SR leukemia
  TGI: > 100 µM
BT-549 breast
  TGI: > 100 µM
SK-MEL-28 melanoma
  TGI: > 100 µM

## O=C(/N=C/c1c(O)c2ccccc2oc1=O)Nc1ccccc1
HL-60(TB) leukemia
  TGI: > 100 µM
NCI-H522 lung
  TGI: > 100 µM
SNB-78 CNS
  TGI: > 100 µM
A549 NSCLC
  TGI: > 100 µM
DMS 273 small cell lung
  TGI: > 100 µM
OVCAR-4 ovarian
  TGI: > 100 µM
SF-268 CNS
  TGI: > 100 µM
SR leukemia
  TGI: > 100 µM
KM20L2 colon
  TGI: > 100 µM
SK-MEL-28 melanoma
  TGI: > 100 µM

## NC(CCCC(N)P(=O)(O)c1ccccc1)P(=O)(O)c1ccccc1 (stereo not drawn)
HL-60(TB) leukemia
  TGI: > 261 µM
NCI-H522 lung
  TGI: > 261 µM
SNB-78 CNS
  TGI: > 261 µM
A549 NSCLC
  TGI: > 261 µM
DMS 273 small cell lung
  TGI: > 261 µM
OVCAR-4 ovarian
  TGI: > 261 µM
SF-268 CNS
  TGI: > 261 µM
SR leukemia
  TGI: > 261 µM
KM20L2 colon
  TGI: > 261 µM
SK-MEL-28 melanoma
  TGI: > 261 µM

## COC(=O)CCC(=O)NC1=C(NCc2ccccc2)C(=O)c2ccccc2C1=O
HL-60(TB) leukemia
  TGI: > 100 µM
NCI-H522 lung
  TGI: 50 µM
A549 NSCLC
  TGI: > 100 µM
OVCAR-4 ovarian
  TGI: 49.8 µM
SF-268 CNS
  TGI: > 100 µM
T-47D breast
  TGI: > 100 µM
SR leukemia
  TGI: > 100 µM
BT-549 breast
  TGI: > 100 µM
SK-MEL-28 melanoma
  TGI: > 100 µM

## S=C(NC1=NCC(CN2CCN(c3ccccc3)CC2)O1)Nc1ccccc1 (stereo not drawn)
HL-60(TB) leukemia
  TGI: > 100 µM
NCI-H522 lung
  TGI: > 100 µM
A549 NSCLC
  TGI: > 100 µM
OVCAR-4 ovarian
  TGI: > 100 µM
SF-268 CNS
  TGI: > 100 µM
T-47D breast
  TGI: > 100 µM
SR leukemia
  TGI: > 100 µM
BT-549 breast
  TGI: > 100 µM
SK-MEL-28 melanoma
  TGI: > 100 µM

## CN1CCCC2(CCCc3ccccc32)C1 (stereo not drawn)
HL-60(TB) leukemia
  TGI: > 100 µM
NCI-H522 lung
  TGI: > 100 µM
SNB-78 CNS
  TGI: > 100 µM
A549 NSCLC
  TGI: > 100 µM
DMS 273 small cell lung
  TGI: > 100 µM
OVCAR-4 ovarian
  TGI: > 100 µM
SF-268 CNS
  TGI: > 100 µM
SR leukemia
  TGI: > 100 µM
KM20L2 colon
  TGI: > 100 µM
SK-MEL-28 melanoma
  TGI: > 100 µM

## Nc1nc(Cl)c(N)c(NCC2(CO)CC(OCc3ccccc3)C2)n1 (stereo not drawn)
HL-60(TB) leukemia
  TGI: > 100 µM
NCI-H522 lung
  TGI: > 100 µM
A549 NSCLC
  TGI: > 100 µM
OVCAR-4 ovarian
  TGI: > 100 µM
SF-268 CNS
  TGI: > 100 µM
T-47D breast
  TGI: > 100 µM
SR leukemia
  TGI: > 100 µM
BT-549 breast
  TGI: > 100 µM
SK-MEL-28 melanoma
  TGI: > 100 µM

## COC(=O)CCC(=O)NC1=C(Nc2ccc(OC)cc2)C(=O)c2ccccc2C1=O
HL-60(TB) leukemia
  TGI: > 68 µM
NCI-H522 lung
  TGI: 24.3 µM
A549 NSCLC
  TGI: 29.7 µM
OVCAR-4 ovarian
  TGI: 24.7 µM
SF-268 CNS
  TGI: 98.2 µM
T-47D breast
  TGI: 40.4 µM
SR leukemia
  TGI: > 75.9 µM
BT-549 breast
  TGI: 29 µM
SK-MEL-28 melanoma
  TGI: 31.4 µM

## N#CCc1n[nH]c(Cc2ccccc2)n1
HL-60(TB) leukemia
  TGI: > 100 µM
NCI-H522 lung
  TGI: > 100 µM
A549 NSCLC
  TGI: > 100 µM
OVCAR-4 ovarian
  TGI: > 100 µM
SF-268 CNS
  TGI: > 100 µM
T-47D breast
  TGI: > 100 µM
SR leukemia
  TGI: > 100 µM
BT-549 breast
  TGI: > 100 µM
SK-MEL-28 melanoma
  TGI: > 100 µM

## O=C1NC(SSC2=NNC3(C(=O)N2)c2ccccc2-c2ccccc23)=NNC12c1ccccc1-c1ccccc12
HL-60(TB) leukemia
  TGI: > 10 µM
NCI-H522 lung
  TGI: > 10 µM
A549 NSCLC
  TGI: > 10 µM
OVCAR-4 ovarian
  TGI: > 10 µM
SF-268 CNS
  TGI: > 10 µM
T-47D breast
  TGI: > 10 µM
SR leukemia
  TGI: > 10 µM
BT-549 breast
  TGI: > 10 µM
SK-MEL-28 melanoma
  TGI: > 10 µM

## Cc1cccc2c(=O)c([Se]c3coc4c(C)cccc4c3=O)coc12
HL-60(TB) leukemia
  TGI: > 100 µM
NCI-H522 lung
  TGI: > 100 µM
SNB-78 CNS
  TGI: 30.4 µM
A549 NSCLC
  TGI: 23.9 µM
DMS 273 small cell lung
  TGI: > 100 µM
OVCAR-4 ovarian
  TGI: 35.2 µM
SF-268 CNS
  TGI: 36.8 µM
SR leukemia
  TGI: 79 µM
KM20L2 colon
  TGI: 52.6 µM
SK-MEL-28 melanoma
  TGI: 32.5 µM
